In test [1] the target is T1, C-X-C chemokine receptor type 1 (Homo sapiens, UniProt P25024).
T1 sequence (P25024 whole entry): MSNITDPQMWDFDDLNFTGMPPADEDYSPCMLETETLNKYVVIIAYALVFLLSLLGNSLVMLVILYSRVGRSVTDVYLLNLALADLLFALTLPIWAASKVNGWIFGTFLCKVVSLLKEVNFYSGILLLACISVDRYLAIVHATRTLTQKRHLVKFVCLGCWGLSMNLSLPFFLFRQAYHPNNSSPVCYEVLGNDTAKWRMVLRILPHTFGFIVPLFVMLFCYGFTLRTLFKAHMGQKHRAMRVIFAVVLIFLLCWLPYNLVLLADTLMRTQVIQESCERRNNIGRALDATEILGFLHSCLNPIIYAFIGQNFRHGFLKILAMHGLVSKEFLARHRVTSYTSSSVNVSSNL
In words: (§1) In Vitro Affinity Assay: ⿿PathHunter HEK293-CXCR2⿝ or ⿿U2OS hCXCR1 β-arrestin⿝ cells (DiscoveRx Corporation) were seeded overnight at 10 000 cells/well (384-well format) in 20 μl of Opti MEM I medium. A preincubation with the antagonist or the vehicle for 30 min at 37° C. and 5% CO2 was followed by 60 minutes of stimulation with CXCL8 at 37° C. and 5% CO2. The cells were then placed at ambient temperature for 30 minutes. The PathHunter detection reagent (DiscoveRx Corporation) was added. After incubation for 60 min at ambient temperature, the […] during the β-arrestin-CXCR2 interaction was measured for 0.3 s in an Envision 2102 Multilabel Reader (PerkinElmer Life and Analytical Sciences).

The target of test [2] is T2, C-X-C chemokine receptor type 2 (Homo sapiens, UniProt P25025).
T2 sequence (P25025 whole entry): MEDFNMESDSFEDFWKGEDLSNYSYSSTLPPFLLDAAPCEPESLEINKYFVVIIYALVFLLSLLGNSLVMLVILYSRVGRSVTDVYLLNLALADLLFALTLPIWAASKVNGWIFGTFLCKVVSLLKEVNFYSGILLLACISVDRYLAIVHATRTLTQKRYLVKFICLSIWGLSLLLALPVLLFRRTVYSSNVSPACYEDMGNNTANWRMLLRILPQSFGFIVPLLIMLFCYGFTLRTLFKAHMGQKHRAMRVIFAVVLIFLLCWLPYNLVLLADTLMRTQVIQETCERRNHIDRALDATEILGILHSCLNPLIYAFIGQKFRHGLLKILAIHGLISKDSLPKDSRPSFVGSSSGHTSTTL
The test is described as §1.

As for `Cc1ccc(C(Nc2c(Nc3cccnc3O)c(=O)c2=O)C2CCCS2)o1` (centres undefined), the figures for the half-inhibitory concentration (IC50) in test [1] and in test [2] were 0.652 µM and 0.023 µM, respectively.

With `Cc1ccc(C(Nc2c(Nc3ccc(Cl)c(C(=O)N(C)C)c3O)c(=O)c2=O)C2CCCS2)o1` (single isomer, unassigned), the IC50 in test [1] was 0.113 µM; in test [2], 0.069 µM.

One may read the IC50 as the concentration at which inhibition is half-maximal. A low value points to greater potency.

The values above are taken from ChEMBL document CHEMBL3886800, “Disubstituted 3,4-diamino-3-cyclobutene-1,2-dione compounds for use in the treatment of chemokine-mediated diseases” (2016).
